Measured values published in patent US4254135A, “3-Amino-4-hydroxypyrrolidines” (A. H. Robins Company, Inc., priority 1979, dated 1981).
Where a name gives a salt, the structure may show the parent alone.

Test: Antitetrabenazine test (blocking of depressant effects induced in mice by intravenous tetrabenazine), antidepressant activity
Assay type: in vivo
Details: Mus musculus, ip, compound intraperitoneally, tetrabenazine intravenously

| SMILES | ED50 |
| --- | --- |
| CCN1C[C@@H](N(C(=O)c2ccc(Cl)cc2)c2ccccc2)[C@H](OC(=O)c2ccc(Cl)cc2)C1 (relative stereo) [Example 27, Trans-4-chlorobenzoic Acid Ester with 4-[(4-Chlorobenzoyl)(phenyl)amino]-1-ethyl-3-pyrrolidinol (E)-2-butenedioate (3:4)] | 1.1 mg/kg |
| CCN1C[C@@H](O)[C@H](N(C(=O)c2ccccc2)c2ccccc2)C1 (relative stereo) [Example 29, Trans-N-(1-ethyl-4-hyroxy-3-pyrrolidinyl)-N-phenylbenzamide (E)-2-butenedioate] | 2.7 mg/kg |
| CCN1C[C@@H](O)[C@H](N(C(=O)c2ccc(Cl)cc2)c2ccccc2)C1 (relative stereo) [Example 28, Trans-4-chloro-N-(1-ethyl-4-hydroxy-3-pyrrolindinyl)-N-phenylbenzamide Fumarate] | 2.9 mg/kg |
| CCN1C[C@@H](O)[C@H](N(C(=O)c2ccccc2)C2CCCCC2)C1 (relative stereo) [Example 50, Trans-4-[(benzoyl)(cyclohexyl)amino]-1-ethyl-3-pyrrolidinol Fumarate [1:1]] | 0.3 mg/kg |
